Blank lines part the entries; values can stand above or below the compound they belong to. Active and inactive are the calls of the source. No cut-off for these calls is given here.
Assays:
[1] = Binding affinity to duplex DNA dA bulge (unknown origin) assessed as change in melting point at 50 uM by UV-Vis spectrophotometric analysis
[2] = Binding affinity to 5'-Biotinylated DNA d(CTG)9-3' (unknown origin) assessed as red shifting of abosrption band at 349 nm at 10 uM by UV-spectrophotometric analysis
[3] = Binding affinity to full match duplex DNA (unknown origin) assessed as change in melting point at 50 uM by UV-Vis spectrophotometric analysis
[4] = Binding affinity to duplex DNA dG bulge (unknown origin) assessed as change in melting point at 50 uM by UV-Vis spectrophotometric analysis
[5] = Binding affinity to 5'-Biotinylated DNA d(CTG)9-3' (unknown origin) by isothermal titration calorimetry
[6] = Binding affinity to 5'-biotinylated DNA d(CTG)9-3' (unknown origin) after 120 sec by SPR assay; conditions: read-out: Kd(app)
[7] = Binding affinity to 5'-Biotinylated DNA d(CAG)9-3' (unknown origin) at 0.63 to 10 uM after 120 sec by SPR assay
[8] = Binding affinity to 5'-Biotinylated DNA d(CGG)9-3' (unknown origin) at 0.63 to 10 uM after 120 sec by SPR assay
[9] = Binding affinity to duplex DNA dT bulge (unknown origin) assessed as change in melting point at 50 uM by UV-Vis spectrophotometric analysis
[10] = Binding affinity to duplex DNA dC bulge (unknown origin) assessed as change in melting point at 50 uM by UV-Vis spectrophotometric analysis
[11] = Binding affinity to 5'-Biotinylated DNA d(CCG)9-3' (unknown origin) after 120 sec by SPR assay; conditions: read-out: Kd(app)

SMILES: NCCCNC(=O)Nc1ccc2ccc3cc[nH]c3c2n1
ΔTm [1]: 1.4 °C | Activity [2]: 8 nm | ΔTm [3]: 0.8 °C | ΔTm [4]: 1 °C | Kd [5]: 17 µM | Kd [6]: 20 µM | Activity [7]: inactive | Activity [8]: inactive | ΔTm [9]: 5.2 °C | ΔTm [10]: 5.8 °C | Kd [11]: 33 µM

SMILES: NCCC(=O)Nc1ccc2ccccc2n1
ΔTm [9]: 0.3 °C

SMILES: Nc1cccc(N)n1
Activity [2]: inactive

SMILES: NCCCNC(=O)Nc1ccc2ccccc2n1
ΔTm [9]: 1.3 °C

Results, then the compound that gave them:

ΔTm [9]: 2.6 °C
SMILES: NCCCCC(=O)Nc1ccc2ccc3cc[nH]c3c2n1

ΔTm [9]: 3.6 °C
SMILES: NCCCC(=O)Nc1ccc2ccc3cc[nH]c3c2n1

ΔTm [1]: 1.7 °C | ΔTm [3]: 0.9 °C | ΔTm [4]: 1.7 °C | ΔTm [9]: 4.7 °C | ΔTm [10]: 3.5 °C
SMILES: NCCC(=O)Nc1ccc2ccc3cc[nH]c3c2n1

ΔTm [9]: 2.9 °C
SMILES: NCC(=O)Nc1ccc2ccc3cc[nH]c3c2n1

Source: ChEMBL document CHEMBL3822446, “Synthesis of 1H-pyrrolo[3,2-h]quinoline-8-amine derivatives that target CTG trinucleotide repeats” (Bioorg Med Chem Lett, 2016)
